The values that follow come from PubChem BioAssay (NCI).

In general, TGI refers to the concentration at which net growth stops. The GI50 is the concentration at which growth is held to half of that of the control.

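Step 1: Grow cells in 96-well plates. Step 2: Expose to compound for 48 hours at 5 concentrations. Step 3: Interpolate endpoints linearly; if unreached, use highest concentration. At the GI50, growth is halved. The concentration for full growth arrest is given as TGI.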

Some test systems named below: A498 renal; ACHN renal; DU-145 prostate; HCC-2998 colon; HCT-116 colon; HOP-62 NSCLC; IGROV1 ovarian; NCI-H226 lung; OVCAR-5 ovarian; SF-268 CNS; SF-539 CNS; SK-MEL-28 melanoma; SNB-19 CNS; SW-620 colon; SR leukemia.
Assay in all cases: DTP human tumour cell line panel, 48 h

On to `CC(=O)N(CN1C(=O)CCC1C(=O)O)c1cccc(O)c1` (stereo unspecified), for which the TGI with A498 renal, in the experiment on ACHN renal, in the experiment on DU-145 prostate, in the experiment with HCC-2998 colon, in the experiment on HCT-116 colon and with HOP-62 NSCLC was > 100 µM in each case. Further, the TGI in the experiment with IGROV1 ovarian, in the experiment on NCI-H226 lung, with OVCAR-5 ovarian, in the experiment with SF-268 CNS, in the experiment on SF-539 CNS and in the experiment with SK-MEL-28 melanoma was > 100 µM each time. Moreover, the TGI in the experiment on SNB-19 CNS and in the experiment with SW-620 colon was > 100 µM in each case.

On to `CC(=O)N1N(c2ccc([N+](=O)[O-])cc2)C(=O)C1(C)C`, for which the total growth inhibition concentration (TGI) in the experiment on A498 renal was > 100 µM; with ACHN renal, 41.5 µM; with DU-145 prostate, > 100 µM; in the experiment on HCC-2998 colon, 29.7 µM; in the experiment on HOP-62 NSCLC it was 40.4 µM; in the experiment on IGROV1 ovarian it was 44.8 µM. In addition, the TGI in the experiment with NCI-H226 lung was 37.6 µM; with OVCAR-5 ovarian, 44.3 µM; with SF-268 CNS it was 87.1 µM; with SF-539 CNS, 49.7 µM; in the experiment on SK-MEL-28 melanoma it was 37.4 µM; in the experiment with SNB-19 CNS it was > 100 µM. The compound further displayed a TGI in the experiment on SW-620 colon of 29.2 µM.

Take `Cc1ccc2c(c1)-c1c(C#N)c(N)nc(-c3ccccc3)c1CCS2(=O)=O`: the TGI with A498 renal is > 80.2 µM; in the experiment with ACHN renal it was > 100 µM; in the experiment on DU-145 prostate it was > 38.9 µM; in the experiment with HCC-2998 colon it was > 100 µM; in the experiment on HCT-116 colon, > 100 µM; with HOP-62 NSCLC, > 100 µM. Further, the TGI in the experiment on IGROV1 ovarian is > 51.1 µM; in the experiment on NCI-H226 lung, > 30.2 µM; in the experiment with OVCAR-5 ovarian it was > 100 µM; with SF-268 CNS, > 100 µM; in the experiment on SF-539 CNS, > 100 µM; with SK-MEL-28 melanoma it was > 100 µM. In addition, the TGI is > 46.9 µM in the experiment with SNB-19 CNS and > 100 µM in the experiment with SW-620 colon.

Consider `COc1ccc(-c2cc(=O)c3cc4c(cc3[nH]2)OCO4)cc1`, for which the TGI in the experiment on A498 renal, with ACHN renal, in the experiment on HCC-2998 colon, in the experiment with HCT-116 colon, with HOP-62 NSCLC and with IGROV1 ovarian was > 100 µM throughout. In addition, the TGI with NCI-H226 lung, with SF-268 CNS, in the experiment on SF-539 CNS, with SK-MEL-28 melanoma, in the experiment with SNB-19 CNS and with SR leukemia was > 100 µM throughout. Moreover, the total growth inhibition concentration (TGI) in the experiment with SW-620 colon is > 100 µM.

Consider `CN(C)CCn1c(=O)c2ccc3c4c(nn3CCN(C)C)c3cc(O)ccc3n(c1=O)c24`, for which the TGI is 0.83 µM in the experiment with A498 renal; 0.689 µM in the experiment on ACHN renal; 0.176 µM in the experiment on HCC-2998 colon; 1.08 µM in the experiment with HCT-116 colon; 0.566 µM in the experiment with HOP-62 NSCLC; 1.44 µM in the experiment on NCI-H226 lung. Also, the TGI in the experiment on OVCAR-5 ovarian came out at 1.26 µM; in the experiment with SF-268 CNS, 0.591 µM; in the experiment with SF-539 CNS it was 3.15 µM; with SK-MEL-28 melanoma, 1.58 µM; in the experiment with SNB-19 CNS, 1 µM; in the experiment on SR leukemia, 0.0505 µM. Moreover, the TGI in the experiment on SW-620 colon is 3.61 µM.

On to `C/C(=N\NC(=S)NC(C)(C)C)c1ccccn1`, for which the TGI is > 39.6 µM in the experiment with A498 renal; > 100 µM in the experiment on DU-145 prostate; > 100 µM in the experiment with HCC-2998 colon; > 100 µM with HCT-116 colon; > 100 µM with HOP-62 NSCLC; > 40.6 µM in the experiment with IGROV1 ovarian. For the same compound, the concentration for total growth inhibition (TGI) was 16 µM with NCI-H226 lung; > 87.8 µM with SF-268 CNS; 18.1 µM in the experiment on SF-539 CNS; > 100 µM in the experiment on SK-MEL-28 melanoma; > 100 µM in the experiment on SNB-19 CNS; > 100 µM with SW-620 colon.

Consider `O=c1c2cn[nH]c2nc2scc(-c3ccc(Cl)cc3)n12`, for which the TGI with ACHN renal, with HCC-2998 colon, with HCT-116 colon, in the experiment on HOP-62 NSCLC, in the experiment on IGROV1 ovarian and in the experiment on NCI-H226 lung was > 100 µM throughout. Also, the TGI with OVCAR-5 ovarian, in the experiment on SF-268 CNS, with SF-539 CNS, in the experiment on SK-MEL-28 melanoma, with SNB-19 CNS and in the experiment with SR leukemia was > 100 µM in each case. Moreover, in the experiment with SW-620 colon, the TGI was > 100 µM.

For the compound `CC(C)/C(Cl)=N\OC(=O)Nc1ccc(F)cc1F`, the TGI in the experiment on A498 renal was 31.1 µM; in the experiment on ACHN renal, 8.53 µM; in the experiment with DU-145 prostate it was 31.7 µM; with HCC-2998 colon, 34 µM; with HCT-116 colon, 15.7 µM; with HOP-62 NSCLC it was 31.8 µM. Besides, the TGI in the experiment with IGROV1 ovarian came to 30.9 µM; in the experiment with NCI-H226 lung, 29.8 µM; in the experiment with OVCAR-5 ovarian it was 33.5 µM; in the experiment with SF-268 CNS, 38.9 µM; in the experiment on SF-539 CNS, 30.6 µM; with SK-MEL-28 melanoma, 25.4 µM. In addition, the TGI with SNB-19 CNS came out at 34.8 µM; with SW-620 colon it was 3.31 µM.

Take `CCOc1cc2c(cc1O)/C(=N/NS(=O)(=O)c1ccc(C)cc1)C[C@@H]1[C@@H]2CC[C@]2(C)[C@@H](O)CC[C@@H]12`: the TGI with A498 renal was > 100 µM; in the experiment with ACHN renal it was 81.2 µM; with DU-145 prostate, > 100 µM; in the experiment on HCC-2998 colon, 15.1 µM; in the experiment on HCT-116 colon, > 100 µM; in the experiment with HOP-62 NSCLC, > 100 µM. Further, the TGI with IGROV1 ovarian was > 100 µM; in the experiment on NCI-H226 lung, 68.7 µM; in the experiment on OVCAR-5 ovarian, 46.4 µM; in the experiment with SF-268 CNS, > 100 µM; in the experiment on SF-539 CNS it was 65.6 µM; in the experiment with SK-MEL-28 melanoma, > 100 µM. In addition, the concentration for total growth inhibition (TGI) in the experiment on SNB-19 CNS and in the experiment with SW-620 colon was > 100 µM in each case. For the same compound, the GI50 in the experiment with DU-145 prostate was 14.9 µM; in the experiment on HCT-116 colon, 6.67 µM; with HOP-62 NSCLC it was 5.14 µM.

With `CC(C)(CO)NC(=O)Nc1c(C(F)(F)F)cc(-c2ccccc2)[nH]c1=O`, the TGI with A498 renal, with ACHN renal, in the experiment with DU-145 prostate, in the experiment on HCC-2998 colon, with HCT-116 colon and in the experiment on HOP-62 NSCLC was > 100 µM in each case. The TGI with IGROV1 ovarian, in the experiment with NCI-H226 lung, in the experiment on OVCAR-5 ovarian, in the experiment with SF-268 CNS, in the experiment with SK-MEL-28 melanoma and in the experiment with SNB-19 CNS was > 100 µM in each case. In addition, the concentration for total growth inhibition (TGI) in the experiment on SW-620 colon was > 100 µM.
